Laboratory results: the supplement of paper PMC10307832

Key:
Assay in all cases: relative viability (nuclei count vs DMSO), 5 days (fraction); higher = more cells survive
[1] = test system: HCC-44
Method in brief: (§1)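 After 5 days of treatment, lung cancer cells in 1536-well plates were fixed and stained in a single step (final 0.05% Triton X-100, 1% formaldehyde, 1 ug/ml Hoechst) and their nuclei counted on 4× images. Treatment had been applied by pin tool the day after seeding as one drug alone or as a fixed anchor-drug dose with five library-drug doses (not always all listed) in √10 steps. Relative viability is the nuclei count of treated wells divided by that of vehicle wells, and values are medians of duplicate plates.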

[2] = test system: ABC-1
Method in brief: as §1

[3] = test system: BEN
Method in brief: as §1

[4] = test system: NCI-H2023
Method in brief: as §1

[5] = test system: NCI-H522
Method in brief: as §1

[6] = test system: NCI-H1915
Method in brief: as §1

[7] = test system: LU99A
Method in brief: as §1

[8] = test system: NCI-H1650
Method in brief: as §1

[9] = test system: NCI-H1944
Method in brief: as §1

[10] = test system: NCI-H1395
Method in brief: as §1

[11] = test system: HCC-827
Method in brief: as §1

[12] = test system: HCC-366
Method in brief: as §1

[13] = test system: HCC-15
Method in brief: as §1

[14] = test system: LCLC-97TM1
Method in brief: as §1

[15] = test system: LC-2-ad
Method in brief: as §1

[16] = test system: LOU-NH91
Method in brief: as §1

[17] = test system: HOP-62
Method in brief: as §1

[18] = test system: NCI-H661
Method in brief: as §1

[19] = test system: COR-L 105
Method in brief: as §1

[20] = test system: CAL-12T
Method in brief: as §1

[21] = test system: HARA
Method in brief: as §1

[22] = test system: NCI-H2009
Method in brief: as §1

[23] = test system: ChaGo-K-1
Method in brief: as §1

[24] = test system: NCI-H650
Method in brief: as §1

[25] = test system: NCI-H596
Method in brief: as §1

SMILES: Nc1cccc2c1CN(C1CCC(=O)NC1=O)C2=O (configuration not stated) [Lenalidomide] + CC(=O)c1c(C)c2cnc(Nc3ccc(N4CCNCC4)cn3)nc2n(C2CCCC2)c1=O [Palbociclib] (partner 0.5 µM)
- relative viability ([1]; first compound 0.253 µM): 0.965
- relative viability ([1]; first compound 0.8 µM): 0.785
- relative viability ([1]; first compound 2.53 µM): 0.972
- relative viability ([1]; first compound 8 µM): 0.907
- relative viability ([2]; first compound 0.253 µM): 0.577
- relative viability ([2]; first compound 0.8 µM): 0.518
- relative viability ([2]; first compound 2.53 µM): 0.904
- relative viability ([2]; first compound 8 µM): 0.671
- relative viability ([3]; first compound 0.253 µM): 0.478
- relative viability ([3]; first compound 0.8 µM): 0.496
- relative viability ([3]; first compound 2.53 µM): 0.418
- relative viability ([3]; first compound 8 µM): 0.556
- relative viability ([4]; first compound 0.253 µM): 0.405
- relative viability ([4]; first compound 0.8 µM): 0.419
- relative viability ([4]; first compound 2.53 µM): 0.403
- relative viability ([4]; first compound 8 µM): 0.45
- relative viability ([5]; first compound 0.253 µM): 0.91
- relative viability ([5]; first compound 0.8 µM): 1
- relative viability ([5]; first compound 2.53 µM): 1.19
- relative viability ([5]; first compound 8 µM): 0.716
- relative viability ([6]; first compound 0.253 µM): 0.549
- relative viability ([6]; first compound 0.8 µM): 0.554
- relative viability ([6]; first compound 2.53 µM): 0.578
- relative viability ([6]; first compound 8 µM): 0.486
- relative viability ([7]; first compound 0.253 µM): 0.409
- relative viability ([7]; first compound 0.8 µM): 0.39
- relative viability ([7]; first compound 2.53 µM): 0.361
- relative viability ([7]; first compound 8 µM): 0.286
- relative viability ([8]; first compound 0.253 µM): 0.339
- relative viability ([8]; first compound 0.8 µM): 0.279
- relative viability ([8]; first compound 2.53 µM): 0.343
- relative viability ([8]; first compound 8 µM): 0.453
- relative viability ([9]; first compound 0.253 µM): 0.364
- relative viability ([9]; first compound 2.53 µM): 0.342
- relative viability ([9]; first compound 8 µM): 0.27
- relative viability ([10]; first compound 0.253 µM): 0.649
- relative viability ([10]; first compound 2.53 µM): 0.701
- relative viability ([10]; first compound 8 µM): 0.592
- relative viability ([11]; first compound 0.253 µM): 0.506
- relative viability ([11]; first compound 0.8 µM): 0.432
- relative viability ([11]; first compound 2.53 µM): 0.538
- relative viability ([11]; first compound 8 µM): 0.489
- relative viability ([12]; first compound 0.253 µM): 0.437
- relative viability ([12]; first compound 0.8 µM): 0.389
- relative viability ([12]; first compound 2.53 µM): 0.505
- relative viability ([12]; first compound 8 µM): 0.353
- relative viability ([13]; first compound 0.253 µM): 0.685
- relative viability ([13]; first compound 0.8 µM): 0.683
- relative viability ([13]; first compound 2.53 µM): 0.904
- relative viability ([13]; first compound 8 µM): 0.708
- relative viability ([14]; first compound 0.253 µM): 0.229
- relative viability ([14]; first compound 0.8 µM): 0.185
- relative viability ([14]; first compound 2.53 µM): 0.209
- relative viability ([14]; first compound 8 µM): 0.212
- relative viability ([15]; first compound 0.253 µM): 0.549
- relative viability ([15]; first compound 0.8 µM): 0.551
- relative viability ([15]; first compound 2.53 µM): 0.533
- relative viability ([15]; first compound 8 µM): 0.531
- relative viability ([16]; first compound 0.253 µM): 0.564
- relative viability ([16]; first compound 0.8 µM): 0.515
- relative viability ([16]; first compound 2.53 µM): 0.487
- relative viability ([16]; first compound 8 µM): 0.429
- relative viability ([17]; first compound 0.253 µM): 0.45
- relative viability ([17]; first compound 0.8 µM): 0.41
- relative viability ([17]; first compound 2.53 µM): 0.455
- relative viability ([17]; first compound 8 µM): 0.378
- relative viability ([18]; first compound 0.253 µM): 0.386
- relative viability ([18]; first compound 0.8 µM): 0.377
- relative viability ([18]; first compound 2.53 µM): 0.348
- relative viability ([18]; first compound 8 µM): 0.357
- relative viability ([19]; first compound 0.253 µM): 0.394
- relative viability ([19]; first compound 0.8 µM): 0.412
- relative viability ([19]; first compound 2.53 µM): 0.409
- relative viability ([19]; first compound 8 µM): 0.413
- relative viability ([20]; first compound 0.253 µM): 0.402
- relative viability ([20]; first compound 0.8 µM): 0.579
- relative viability ([20]; first compound 2.53 µM): 0.785
- relative viability ([20]; first compound 8 µM): 0.472
- relative viability ([21]; first compound 0.253 µM): 0.253
- relative viability ([21]; first compound 2.53 µM): 0.293
- relative viability ([21]; first compound 8 µM): 0.253
- relative viability ([22]; first compound 0.253 µM): 0.206
- relative viability ([22]; first compound 0.8 µM): 0.232
- relative viability ([22]; first compound 2.53 µM): 0.218
- relative viability ([22]; first compound 8 µM): 0.221
- relative viability ([23]; first compound 0.253 µM): 0.946
- relative viability ([23]; first compound 0.8 µM): 0.978
- relative viability ([23]; first compound 2.53 µM): 1.01
- relative viability ([23]; first compound 8 µM): 0.971
- relative viability ([24]; first compound 0.253 µM): 0.405
- relative viability ([24]; first compound 0.8 µM): 0.303
- relative viability ([24]; first compound 2.53 µM): 0.326
- relative viability ([24]; first compound 8 µM): 0.355

SMILES: Nc1cccc2c1CN(C1CCC(=O)NC1=O)C2=O (configuration not stated) [Lenalidomide] + CCNC(=O)c1noc(-c2cc(C(C)C)c(O)cc2O)c1-c1ccc(CN2CCOCC2)cc1 [Luminespib] (partner 0.01 µM)
- relative viability ([1]; first compound 0.253 µM): 0.988
- relative viability ([1]; first compound 2.53 µM): 1.4
- relative viability ([1]; first compound 8 µM): 1.23
- relative viability ([2]; first compound 0.253 µM): 0.908
- relative viability ([2]; first compound 2.53 µM): 0.684
- relative viability ([2]; first compound 8 µM): 0.517
- relative viability ([3]; first compound 0.253 µM): 0.427
- relative viability ([3]; first compound 0.8 µM): 0.233
- relative viability ([3]; first compound 2.53 µM): 0.607
- relative viability ([3]; first compound 8 µM): 0.246
- relative viability ([4]; first compound 0.253 µM): 0.869
- relative viability ([4]; first compound 0.8 µM): 0.915
- relative viability ([4]; first compound 2.53 µM): 0.685
- relative viability ([4]; first compound 8 µM): 0.824
- relative viability ([5]; first compound 0.253 µM): 1.32
- relative viability ([5]; first compound 0.8 µM): 1.79
- relative viability ([5]; first compound 2.53 µM): 1.28
- relative viability ([5]; first compound 8 µM): 1.17
- relative viability ([6]; first compound 0.253 µM): 0.818
- relative viability ([6]; first compound 0.8 µM): 0.845
- relative viability ([6]; first compound 2.53 µM): 0.802
- relative viability ([6]; first compound 8 µM): 0.915
- relative viability ([7]; first compound 0.253 µM): 0.236
- relative viability ([7]; first compound 0.8 µM): 0.249
- relative viability ([7]; first compound 2.53 µM): 0.258
- relative viability ([7]; first compound 8 µM): 0.258
- relative viability ([8]; first compound 0.8 µM): 0.197
- relative viability ([8]; first compound 2.53 µM): 0.196
- relative viability ([8]; first compound 8 µM): 0.202
- relative viability ([9]; first compound 0.253 µM): 0.675
- relative viability ([9]; first compound 0.8 µM): 0.777
- relative viability ([9]; first compound 2.53 µM): 0.871
- relative viability ([9]; first compound 8 µM): 0.502
- relative viability ([10]; first compound 0.253 µM): 0.796
- relative viability ([10]; first compound 0.8 µM): 0.72
- relative viability ([10]; first compound 2.53 µM): 0.855
- relative viability ([10]; first compound 8 µM): 0.615
- relative viability ([11]; first compound 0.253 µM): 0.661
- relative viability ([11]; first compound 0.8 µM): 0.803
- relative viability ([11]; first compound 2.53 µM): 0.838
- relative viability ([11]; first compound 8 µM): 0.59
- relative viability ([13]; first compound 0.253 µM): 0.485
- relative viability ([13]; first compound 0.8 µM): 0.303
- relative viability ([13]; first compound 2.53 µM): 0.359
- relative viability ([13]; first compound 8 µM): 0.363
- relative viability ([14]; first compound 0.253 µM): 0.763
- relative viability ([14]; first compound 0.8 µM): 0.707
- relative viability ([14]; first compound 2.53 µM): 0.848
- relative viability ([14]; first compound 8 µM): 0.761
- relative viability ([15]; first compound 0.253 µM): 0.912
- relative viability ([15]; first compound 2.53 µM): 1.03
- relative viability ([15]; first compound 8 µM): 1.18
- relative viability ([16]; first compound 0.253 µM): 0.343
- relative viability ([16]; first compound 0.8 µM): 0.343
- relative viability ([16]; first compound 2.53 µM): 0.313
- relative viability ([16]; first compound 8 µM): 0.283
- relative viability ([17]; first compound 0.253 µM): 0.961
- relative viability ([17]; first compound 0.8 µM): 0.843
- relative viability ([17]; first compound 2.53 µM): 0.899
- relative viability ([17]; first compound 8 µM): 0.938
- relative viability ([18]; first compound 0.253 µM): 0.835
- relative viability ([18]; first compound 0.8 µM): 0.864
- relative viability ([18]; first compound 2.53 µM): 0.847
- relative viability ([18]; first compound 8 µM): 0.9
- relative viability ([19]; first compound 0.253 µM): 0.891
- relative viability ([19]; first compound 0.8 µM): 0.574
- relative viability ([19]; first compound 2.53 µM): 0.836
- relative viability ([19]; first compound 8 µM): 0.994
- relative viability ([20]; first compound 0.253 µM): 0.341
- relative viability ([20]; first compound 0.8 µM): 0.245
- relative viability ([20]; first compound 2.53 µM): 0.259
- relative viability ([20]; first compound 8 µM): 0.479
- relative viability ([21]; first compound 0.253 µM): 0.679
- relative viability ([21]; first compound 2.53 µM): 0.614
- relative viability ([21]; first compound 8 µM): 1.03
- relative viability ([22]; first compound 0.253 µM): 1.04
- relative viability ([22]; first compound 0.8 µM): 0.99
- relative viability ([22]; first compound 2.53 µM): 1.09
- relative viability ([22]; first compound 8 µM): 1.11
- relative viability ([25]; first compound 0.253 µM): 0.967
- relative viability ([25]; first compound 2.53 µM): 1.29
- relative viability ([25]; first compound 8 µM): 0.985
- relative viability ([23]; first compound 0.253 µM): 0.649
- relative viability ([23]; first compound 0.8 µM): 0.506
- relative viability ([23]; first compound 2.53 µM): 0.788
- relative viability ([23]; first compound 8 µM): 0.541
- relative viability ([24]; first compound 0.253 µM): 0.905
- relative viability ([24]; first compound 2.53 µM): 0.831
- relative viability ([24]; first compound 8 µM): 0.823
